Our source for the IC50 values is article PMC3427410 (Nature chemical biology, 2012).

In general, IC50 refers to the point on the concentration scale where inhibition reaches its midpoint. Low values mean inhibition by little substance, high ones a need for much substance.

The target of this test is T1, FUT7 (Homo sapiens, UniProt Q11130).
T1 sequence (Q11130 1-342): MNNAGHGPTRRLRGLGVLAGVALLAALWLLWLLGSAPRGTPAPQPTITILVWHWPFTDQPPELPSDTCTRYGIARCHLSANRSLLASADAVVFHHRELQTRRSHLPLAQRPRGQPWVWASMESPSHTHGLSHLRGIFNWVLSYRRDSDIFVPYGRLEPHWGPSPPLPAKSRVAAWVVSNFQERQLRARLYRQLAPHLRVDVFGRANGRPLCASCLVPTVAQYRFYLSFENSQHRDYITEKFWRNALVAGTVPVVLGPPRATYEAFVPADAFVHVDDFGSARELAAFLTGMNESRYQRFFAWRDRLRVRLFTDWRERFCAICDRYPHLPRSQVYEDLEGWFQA
The test can be described thus: in vitro fucosyltransferase assay, competition with GDP-Fuc transfer. It counts as biochemical.

As for `Nc1nc2c(ncn2[C@@H]2O[C@H](COP(=O)(O)OP(=O)(O)O[C@H]3O[C@@H](CF)[C@@H](O)[C@@H](O)[C@@H]3O)[C@@H](O)[C@H]2O)c(=O)[nH]1` [compound 6, GDP-6F-Fuc], the IC50 is ~2.5 µM.
